“Also recorded” adds a separate entry of the source.
Tests used:
[1] = test system: Infiltration of Polymorphonuclear Leukocytes into Sites of Carrageenan-Induced Inflammation; experiment: Mouse carrageenan peritonitis (PMN infiltration); assay type: in vivo, mouse (male Balb/c); details: for PMN infiltration, result in words: carrageenan peritonitis, mice
[2] = test system: Arachidonic Acid-Induced Inflammation of the Mouse Ear; experiment: Arachidonic acid-induced mouse ear inflammation; assay type: in vivo, mouse (male Balb/c); details: for Mouse ear edema, result in words: in vivo
Text: (§1) In the following Examples where mice were used, they were male Balb/c mice (20-28 g), and where rats were used, they were male Lewis rats (180-210 g). All mice and rats were obtained from Charles River Breeding Laboratories, Kingston, N.Y. Within a single experiment, mice and rats were sex and age matched.
(§2) The compounds of Formula (I) were used either as the free base or in the appropriate salt form. Levamisole was used as the hydrochloride salt. The compounds were homogenized in 0.5% tragacanth. Compounds were administered by gavage at the indicated dose in a final volume of 10 ml/kg. Nordihydroguaiaretic acid (NDGA) was solubilized in dimethylacetamide and diluted with olive oil for subcutaneous administration.
Arachidonic acid in acetone ([…]) was applied to the inner surface of the left ear. The thickness of both ears was then measured with a dial micrometer one hour after treatment, and the data were expressed as the change in thickness (10^-3 cm) between treated and untreated ears.
Test compounds were given orally in 0.5% tragacanth at the times indicated in the text prior to the topical application of arachidonic acid.
Parenteral administration of compound was accomplished by subcutaneous injection of solution as indicated.

[3] = test system: Arachidonic Acid-Induced Rat Paw Edema; experiment: Arachidonic acid-induced rat paw swelling; assay type: in vivo, rat (male Lewis)
Text: as §1
Auranofin, phenidone, indomethacin, naproxen, and ibuprofen were each used as the free base. The compounds of Formula (I) were used either as the free base or in the appropriate salt form. Levamisole was used as the hydrochloride salt. The compounds were homogenized in 0.5% tragacanth. Compounds were administered by gavage at the indicated dose in a final volume of 10 ml/kg. Nordihydroguaiaretic acid (NDGA) was solubilized in dimethylacetamide and diluted with olive oil for subcutaneous administration.
After determining pretreatment paw volumes by plethysmography by the method of Webb and Griswold, J. Pharmacol. Methods, 12, 149-153 (1984), rats were given test compound or vehicle one hour prior to the subplantar injection of 0.1 ml of 1 mg/ml arachidonic acid. Paw volumes were then remeasured and compared to pretreatment values and the increase in paw volume was expressed as mean values ± S.D.

[4] = test system: Carrageenan-Induced Cellular Infiltration into the Rat Air Pouch; experiment: Carrageenan-induced air pouch inflammation; assay type: in vivo, rat (male Lewis); details: for Cell infiltration into carrageenan air pouch, result in words: rat, in vivo
Text: as §1, §2
(§3) Rats were shaved on the dorsal flank, and then injected subcutaneously one day later with 20 ml of air to form a defined pouch, by the method of Sedgwick et al., J. Pathology, 141, 483-495 (1983). The air pouch was reinflated as necessary over the next 6 days. To assay anti-inflammatory activity, animals were treated orally with test compound or vehicle (10 ml/kg) one hour before injection of 2.0 ml of a 2.0% carrageenan suspension containing […] penicillin and 100 µg/ml streptomycin into the air pouch. In other experiments, 5 ml of 0.1% arachidonic acid in 0.2M bicarbonate buffer was injected two hours after drug treatment. Animals were sacrificed using CO2 three hours after instillation of irritant. The exudate was then aspirated from the pouch and neutrophil count and differential cell count were measured.

[5] = test system: Arachidonic Acid-Induced Cellular Infiltration into the Rat Air Pouch; experiment: Arachidonic acid-induced air pouch inflammation; assay type: in vivo, rat (male Lewis); details: for Cell infiltration into arachidonic acid air pouch, result in words: rat, in vivo
Text: as §1, §2, §3

[6] = test system: Experimental Allergic Encephalomyelitis Induced in Female Lewis Rats; experiment: Experimental allergic encephalomyelitis, hindleg paralysis; assay type: in vivo, rat (female Lewis); details: for Inhibition of EAE, result in words: rat, in vivo
Method: EAE is induced in Female (Charles River) Lewis rats by a single intradermal injection of 0.1 ml of an encephalitogenic emulsion consisting of equial parts of a 50% w/v homogenate of guinea pig spinal cord and mid-brain in 0.5% aqueous phenol and Freund's complete adjuvant (4 mg/ml killed, dried M. butyricum) into a hindpaw (left) footpad. […] Any animal which becomes paralyzed during the course of the experiment is considered to have developed EAE whether or not the paralysis is permanent. Test compounds are administered daily beginning on the day of injection, for 19 days, exclusive of days 5, 6 12 and 13. Drug activity is determined by comparing the indicidence of EAE (paralysis) of the treated group with a control (vehicle) group. The level of significant difference between the treated groups and control groups is determined by a Chi-square test using a 2×2 contingency table. Body weight changes from day 0 are also statistically compared to the control group using a Student "t" test.

[7] = 5 mg/kg, 2 hours post arachidonic acid

## Fc1ccc(-c2nc3n(c2-c2ccncc2)CCS3)cc1 [Compound 1]
[1]
  PMN infiltration, result in words: reduced dramatically
[2]; 50 mg/kg, p.o.
  Increase in Ear Thickness at 1 Hour: 10.0 ± 1.5 × 10-3 cm
[2]
  Mouse ear edema, result in words: marked inhibition of the edematous response
[3]; 100 mg/kg, 2 hours post arachidonic acid
  Change in Paw Volume: 0.06 ± 0.05 mL
[3]; rat, in vivo
  Rat paw inflammatory response, result in words: inhibited significantly
[4]; 100 mg/kg
  Cellular Infiltrate MN: 5.5 ± 3.8 Total × 10^-6
  Cellular Infiltrate PMN: 2.6 ± 1.3 Total × 10^-6
  Exudate Volume: 1.0 ± 0.9 mL
[4]
  Cell infiltration into carrageenan air pouch, result in words: significant inhibition of polymorphonuclear leukocyte infiltration
[5]; 100 mg/kg
  Cellular Infiltrate MN: 1.5 ± 1.1 Total × 10^-6
  Cellular Infiltrate PMN: 1.2 ± 0.7 Total × 10^-6
  Exudate Volume: 2.6 ± 0.8 mL
[5]
  Cell infiltration into arachidonic acid air pouch, result in words: significantly reduced PMN and mononuclear cell infiltration
[6]; 60 mg/kg/day, p.o.
  Hindleg paralysis - cumulative incidence, day 14 to 18: 0/11
[6]
  Inhibition of EAE, result in words: efficacious

## COc1ccc2c(c1)c(CC(=O)O)c(C)n2C(=O)c1ccc(Cl)cc1 [Indomethacin]
[1]; 10 mg/kg, p.o., Table 3
  % Change (PMN): -12%
  PMN (Mean ± S.D.): 8.20 ± 2.65 × 10^-5 /ml
[1]
  PMN infiltration, result in words: did not impair inflammatory cell infiltration
[2]; 10 mg/kg, p.o.
  % Change (ear thickness): -5%
  Increase in Ear Thickness at 1 Hour: 24.4 ± 0.8 × 10-3 cm
[2]
  Mouse ear edema, result in words: did not exhibit detectable anti-inflammatory activity
[3]; [7]
  % Inhibition (paw volume): 0%
  Change in Paw Volume: 0.29 ± 0.06 mL
[4]; 5 mg/kg
  Cellular Infiltrate MN: 4.0 ± 0.8 Total × 10^-6
  Cellular Infiltrate PMN: 2.8 ± 0.7 Total × 10^-6
  Exudate Volume: 2.0 ± 0.5 mL
[4]
  Cell infiltration into carrageenan air pouch, result in words: reduction in the PMN count and the PMN:mononuclear cell ratio
[5]; 5 mg/kg
  Cellular Infiltrate MN: 7.0 ± 6.4 Total × 10^-6
  Cellular Infiltrate PMN: 5.0 ± 3.8 Total × 10^-6
  Exudate Volume: 2.5 ± 0.8 mL
[5]
  Cell infiltration into arachidonic acid air pouch, result in words: did not reduce inflammation or cell infiltration; also recorded: no significant effect on cell infiltration
[6]
  Inhibition of EAE, result in words: not indomethacin

Source: patent US5134150A, “Inhibition of the 5-lipoxygenase pathway” (priority 1989, dated 1992)
